Data on three compounds can be found in publication PMC9532562 (Acta Pharmaceutica Sinica. B, 2022).

The structures appear in SMILES notation.

The target of series [1] is CYP2C19 (Homo sapiens, UniProt P33261). Nature of the series: CYP inhibition assay, pooled human liver microsomes. The following applies: probe S-mephenytoin. It counts as in vitro ADME.
The target in series [2] is CYP2D6 (Homo sapiens, UniProt P10635). Described as above. It counts as in vitro ADME. The following applies: probe dextromethorphan.
CYP2D6, sequence (P10635 whole entry): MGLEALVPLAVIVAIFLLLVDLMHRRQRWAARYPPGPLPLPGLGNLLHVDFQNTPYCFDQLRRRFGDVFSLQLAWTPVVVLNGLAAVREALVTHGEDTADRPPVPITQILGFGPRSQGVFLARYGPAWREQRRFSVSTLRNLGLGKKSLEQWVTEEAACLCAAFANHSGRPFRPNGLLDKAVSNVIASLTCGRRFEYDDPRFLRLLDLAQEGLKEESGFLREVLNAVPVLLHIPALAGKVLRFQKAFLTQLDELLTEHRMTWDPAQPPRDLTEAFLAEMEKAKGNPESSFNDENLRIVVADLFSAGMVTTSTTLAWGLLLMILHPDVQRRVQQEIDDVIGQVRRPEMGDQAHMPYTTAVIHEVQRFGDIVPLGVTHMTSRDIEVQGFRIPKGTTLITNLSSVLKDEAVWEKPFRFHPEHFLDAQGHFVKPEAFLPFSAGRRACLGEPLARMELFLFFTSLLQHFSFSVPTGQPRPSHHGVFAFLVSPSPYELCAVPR
In series [3] the target is HDAC5 (Homo sapiens, UniProt Q9UQL6). Put plainly: HDAC enzyme inhibition assay. It counts as biochemical.
HDAC5, sequence (Q9UQL6 whole entry): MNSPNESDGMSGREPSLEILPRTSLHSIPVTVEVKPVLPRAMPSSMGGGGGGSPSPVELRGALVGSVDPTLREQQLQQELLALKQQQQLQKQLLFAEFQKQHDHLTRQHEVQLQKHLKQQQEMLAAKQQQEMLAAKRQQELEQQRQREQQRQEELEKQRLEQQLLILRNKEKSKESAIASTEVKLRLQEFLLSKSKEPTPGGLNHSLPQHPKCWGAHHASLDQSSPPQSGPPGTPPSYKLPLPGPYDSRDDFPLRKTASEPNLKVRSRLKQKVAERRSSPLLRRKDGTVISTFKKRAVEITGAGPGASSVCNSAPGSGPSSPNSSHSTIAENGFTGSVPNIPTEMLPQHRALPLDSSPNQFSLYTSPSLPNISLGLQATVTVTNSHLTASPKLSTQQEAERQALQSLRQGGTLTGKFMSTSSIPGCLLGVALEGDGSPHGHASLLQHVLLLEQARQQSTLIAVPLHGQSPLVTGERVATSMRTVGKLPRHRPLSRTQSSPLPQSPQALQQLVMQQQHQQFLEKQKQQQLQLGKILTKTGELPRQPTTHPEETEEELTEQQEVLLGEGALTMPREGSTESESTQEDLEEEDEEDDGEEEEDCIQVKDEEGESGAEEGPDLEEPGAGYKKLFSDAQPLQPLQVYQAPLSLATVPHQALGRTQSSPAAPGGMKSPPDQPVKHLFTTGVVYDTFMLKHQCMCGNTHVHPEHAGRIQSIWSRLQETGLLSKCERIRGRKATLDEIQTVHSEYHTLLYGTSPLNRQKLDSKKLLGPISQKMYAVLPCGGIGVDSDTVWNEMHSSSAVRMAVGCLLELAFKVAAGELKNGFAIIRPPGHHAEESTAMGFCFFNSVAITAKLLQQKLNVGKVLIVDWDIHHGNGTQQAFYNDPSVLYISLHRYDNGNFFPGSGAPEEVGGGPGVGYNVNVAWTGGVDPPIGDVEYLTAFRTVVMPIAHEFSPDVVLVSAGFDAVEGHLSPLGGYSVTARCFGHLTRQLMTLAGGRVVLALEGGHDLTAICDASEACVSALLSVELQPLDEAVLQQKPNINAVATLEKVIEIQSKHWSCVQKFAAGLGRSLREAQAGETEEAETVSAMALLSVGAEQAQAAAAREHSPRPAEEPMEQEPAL
Series [4] deals with T1, HDAC7 (Homo sapiens, UniProt Q8WUI4).
T1 sequence (Q8WUI4 1-952): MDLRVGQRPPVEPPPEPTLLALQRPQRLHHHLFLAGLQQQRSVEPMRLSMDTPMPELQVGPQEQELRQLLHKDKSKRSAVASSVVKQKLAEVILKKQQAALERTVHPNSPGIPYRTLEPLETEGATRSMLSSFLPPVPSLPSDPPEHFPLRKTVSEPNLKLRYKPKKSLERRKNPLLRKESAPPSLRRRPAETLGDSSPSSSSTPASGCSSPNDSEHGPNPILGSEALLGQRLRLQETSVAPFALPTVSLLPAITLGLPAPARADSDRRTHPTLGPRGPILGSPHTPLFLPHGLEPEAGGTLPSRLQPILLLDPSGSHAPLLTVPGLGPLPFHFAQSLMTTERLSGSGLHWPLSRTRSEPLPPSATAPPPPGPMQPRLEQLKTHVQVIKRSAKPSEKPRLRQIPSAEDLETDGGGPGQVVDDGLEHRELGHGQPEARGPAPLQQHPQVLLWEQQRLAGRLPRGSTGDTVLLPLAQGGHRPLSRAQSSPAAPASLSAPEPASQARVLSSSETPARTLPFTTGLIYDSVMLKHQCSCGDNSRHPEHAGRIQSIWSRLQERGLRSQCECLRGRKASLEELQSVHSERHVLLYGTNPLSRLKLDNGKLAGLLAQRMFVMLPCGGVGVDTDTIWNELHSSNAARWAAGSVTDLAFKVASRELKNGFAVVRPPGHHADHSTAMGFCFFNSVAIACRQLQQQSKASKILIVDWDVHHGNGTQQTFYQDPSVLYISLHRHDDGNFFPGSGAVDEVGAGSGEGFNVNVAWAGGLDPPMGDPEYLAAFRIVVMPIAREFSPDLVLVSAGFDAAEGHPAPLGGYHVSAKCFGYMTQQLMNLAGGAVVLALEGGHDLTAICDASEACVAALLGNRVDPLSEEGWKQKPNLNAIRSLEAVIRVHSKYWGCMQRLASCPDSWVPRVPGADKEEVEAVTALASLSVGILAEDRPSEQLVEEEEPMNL
Put plainly: HDAC enzyme inhibition assay. It counts as biochemical.

Series [5] can be described thus: In vivo brain/plasma PK studies. Details: species or system C57BL/6 mice. As to conditions: C57BL/6, mouse, ip, 1 mg/kg.
The nature of series [6]: LogD determination, shake flask method. It counts as physicochemical. The following applies: n-octanol/PBS, pH 7.4.
A short description of series [7]: Plasma protein binding. The following applies: human. It counts as in vitro ADME.
Series [8] is described as follows: Hepatocyte stability. It counts as in vitro ADME. As to conditions: human, hepatocytes.
Series [9] has as its target CYP3A4 (Homo sapiens, UniProt P08684). Put plainly: CYP inhibition assay, pooled human liver microsomes. It counts as in vitro ADME. The following applies: probe testosterone.
Series [10] addresses T2, CYP1A2 (Homo sapiens, UniProt P05177).
T2 sequence (P05177 1-516): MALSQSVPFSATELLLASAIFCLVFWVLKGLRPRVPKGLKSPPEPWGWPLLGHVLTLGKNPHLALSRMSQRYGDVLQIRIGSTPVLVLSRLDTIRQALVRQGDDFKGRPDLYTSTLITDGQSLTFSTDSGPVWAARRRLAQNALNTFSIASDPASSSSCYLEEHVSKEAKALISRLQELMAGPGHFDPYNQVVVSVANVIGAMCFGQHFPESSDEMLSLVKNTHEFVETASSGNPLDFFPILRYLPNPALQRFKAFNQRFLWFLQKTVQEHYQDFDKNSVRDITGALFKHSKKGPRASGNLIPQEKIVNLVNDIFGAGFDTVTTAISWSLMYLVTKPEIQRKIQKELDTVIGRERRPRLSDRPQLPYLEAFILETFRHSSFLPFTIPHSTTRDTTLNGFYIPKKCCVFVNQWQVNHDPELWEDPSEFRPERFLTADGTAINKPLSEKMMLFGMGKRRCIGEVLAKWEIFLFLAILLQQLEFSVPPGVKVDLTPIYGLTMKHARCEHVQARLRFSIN
The series is described as above. It counts as in vitro ADME. As to conditions: probe phenacetin.

The target in series [11] is CYP2C9 (Homo sapiens, UniProt P11712). The series is described as above. It counts as in vitro ADME. The following applies: probe diclofenac.
CYP2C9, sequence (P11712 whole entry): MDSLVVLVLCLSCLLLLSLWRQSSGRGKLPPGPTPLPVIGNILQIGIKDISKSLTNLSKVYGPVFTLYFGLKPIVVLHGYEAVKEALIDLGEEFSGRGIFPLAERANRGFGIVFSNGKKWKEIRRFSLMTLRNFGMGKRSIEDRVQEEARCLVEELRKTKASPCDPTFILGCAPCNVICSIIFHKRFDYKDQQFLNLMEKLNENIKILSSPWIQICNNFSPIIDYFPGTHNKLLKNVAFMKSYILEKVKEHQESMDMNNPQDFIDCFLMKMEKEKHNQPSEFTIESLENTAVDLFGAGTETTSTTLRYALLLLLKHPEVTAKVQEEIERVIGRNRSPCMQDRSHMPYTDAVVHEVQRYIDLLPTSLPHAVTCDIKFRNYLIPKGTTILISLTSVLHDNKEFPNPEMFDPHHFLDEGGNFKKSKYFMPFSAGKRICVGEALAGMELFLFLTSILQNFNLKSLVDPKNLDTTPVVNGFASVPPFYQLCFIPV

CYP3A4, sequence (P08684 whole entry): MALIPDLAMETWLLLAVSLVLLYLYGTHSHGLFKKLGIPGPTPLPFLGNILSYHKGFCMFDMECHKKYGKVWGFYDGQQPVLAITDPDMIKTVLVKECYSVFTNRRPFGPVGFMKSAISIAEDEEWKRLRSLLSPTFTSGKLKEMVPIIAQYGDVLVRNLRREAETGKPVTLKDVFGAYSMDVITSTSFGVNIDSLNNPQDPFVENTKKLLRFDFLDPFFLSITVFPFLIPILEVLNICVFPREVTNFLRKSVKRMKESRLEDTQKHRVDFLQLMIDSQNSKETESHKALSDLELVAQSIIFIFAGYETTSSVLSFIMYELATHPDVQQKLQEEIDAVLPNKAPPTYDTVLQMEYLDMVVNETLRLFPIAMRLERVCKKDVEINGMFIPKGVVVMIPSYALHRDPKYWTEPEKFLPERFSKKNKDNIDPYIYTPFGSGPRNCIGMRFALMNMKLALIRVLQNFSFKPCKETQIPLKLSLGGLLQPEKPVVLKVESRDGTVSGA
CYP2C19, sequence (P33261 whole entry): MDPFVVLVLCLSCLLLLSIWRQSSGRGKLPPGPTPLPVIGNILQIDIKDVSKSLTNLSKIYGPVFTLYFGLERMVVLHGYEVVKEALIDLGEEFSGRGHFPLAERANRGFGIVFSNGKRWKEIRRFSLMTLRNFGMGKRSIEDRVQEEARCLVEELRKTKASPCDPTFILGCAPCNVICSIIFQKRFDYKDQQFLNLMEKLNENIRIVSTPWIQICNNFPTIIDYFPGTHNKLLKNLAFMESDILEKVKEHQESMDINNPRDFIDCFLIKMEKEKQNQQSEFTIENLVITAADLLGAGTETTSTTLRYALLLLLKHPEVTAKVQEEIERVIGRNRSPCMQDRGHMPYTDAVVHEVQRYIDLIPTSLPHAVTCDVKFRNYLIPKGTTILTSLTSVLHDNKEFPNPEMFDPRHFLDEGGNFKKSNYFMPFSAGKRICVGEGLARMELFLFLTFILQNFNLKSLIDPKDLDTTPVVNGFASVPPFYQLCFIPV

The inhibition is the change of the read-out against control, counted positive when it falls. Broadly, the IC50 is the concentration needed to halve the response being measured. High values mean lower potency, low ones higher potency. As usually defined, the Kp is the ratio of the level in a tissue or fluid to that in plasma or blood. As usually defined, the logD is the decadic logarithm of the distribution of all forms, ionised or not, between an organic phase and buffer at a given pH. Higher therefore signals higher lipophilicity. Usually fraction unbound stands for free concentration divided by total concentration. Low values mean extensive binding, high ones weak binding. A word on the half-life: it is how long it takes for the measured level to halve. Lower therefore signals rapid decline. For `O=C(NO)c1ccc(CN2CCCCc3ccccc32)c(F)c1` [15c, 3-Fluoro-N-hydroxy-4-((2,3,4,5-tetrahydro-1H-benzo[b]azepin-1-yl)methyl)benzamide], in series [1], the inhibition at 25 min, 10 μmol/L worked out at 54%. The inhibition at 10 min, 10 μmol/L in series [2] was 36.3%; in series [9], 89%; in series [10] it was 36.8%; in series [11] it was 34.8%. The IC50 in series [3] stood at 2.44 µM; in series [4], 0.609 µM. In series [5] (brain and plasma, Brain/plasma ratio, C57BL/6 mice, 4 h), the Kp at 4 h worked out at 2.3. The results for the concentration at 0.5 h in series [5] (brain) and in series [5] (plasma) were 48.5 ng/mL and 1.32 ng/mL, respectively. Moreover, the values for the concentration at 1 h in series [5] (brain) and in series [5] (plasma) were 11.5 ng/mL and 0.72 ng/mL, respectively. Further, the concentration at 4 h in [5] (brain) came out at 0.82 ng/mL; in [5] (plasma), 0.35 ng/mL. The compound also showed a logD at 1 h in [6] of 3.4. The compound also showed a fraction unbound in series [7] of 0.006. Also, the half-life at 5 μM in series [8] came to 32.4 min.

In the case of `O=C(NO)c1ccc(CN2CCCCc3ccccc32)cc1F` [15d, 2-Fluoro-N-hydroxy-4-((2,3,4,5-tetrahydro-1H-benzo[b]azepin-1-yl)methyl)benzamide], the IC50 in [3] was above 10 µM; in series [4] it was 3.02 µM.

For `COc1cc(C(=O)NO)ccc1CN1CCCCc2ccccc21` [15a, N-Hydroxy-3-methoxy-4-((2,3,4,5-tetrahydro-1H-benzo[b]azepin-1-yl)methyl)benzamide], the IC50 in series [3] and in series [4] was above 10 µM each time.
